Each structure is given as a SMILES string. Bounds are passed on as bounds.

Experiment [1] has as its target NMDAR. Nature of the experiment: NMDA receptor [3H]-MK-801 competition radioligand binding in rat forebrain. Conditions: for NMDAR binding affinity pKi (mean ± SEM): [3H]-MK-801 1 nM competition, 1 mM glutamate, 0.1 mM glycine, pH 7.4, 2 h ambient, N = 1-4; for % inhibition of specific [3H]-MK-801 binding: at 10,000 nM. Here is the method:
Rat forebrains from 7-8 week old Sprague-Dawley rats (BioChemed, USA) were homogenized in a buffer containing 10 mM HEPES and 1 mM EDTA (pH 7.4) using a mechanical homogenizer (Janke-Kunkel Ultra-Turrax T25). A 10 mL volume was used per brain for all steps involving suspension of the brain homogenate tissue. The brain homogenate was then centrifuged (15 minutes at 20,000 RPM and 4 ° C). The supernatant was carefully poured off and the pellet was resuspended in fresh 10 mM HEPES and 1 mM EDTA containing buffer. This process was repeated 5 times. Following the 5th centrifugation, the buffer was replaced with a buffer containing 10 mM HEPES (pH 7.4). The homogenate was then incubated in a water bath at 37 ° C in the dark (covered with foil). Centrifugation was then repeated 3 additional times and after resuspending in the HEPES buffer, the final homogenate was aliquoted and stored at −80 ° C until use. Protein concentration of the homogenate was determined by utilizing the Bradford method using Coomassie protein assay reagent (Sigma, USA) with Bovine Serum albumin (Sigma, USA) as a standard.
At the time of the experiment, the homogenate was diluted to a final concentration of […] in 10 mM HEPES buffer, 1 mM glutamate, and 0.1 mM glycine (pH 7.4) and combined with 1 nM (+)-[3H]-MK-801 (Perkin Elmer NET972250UC), unlabeled competitor compounds at varying concentrations, or 30 uM MK-801 to determine non-specific binding, in a total volume of 1 mL in a 96 well plate. The protein homogenate is always added to the wells last. The plates were covered with aluminum foil, and placed on a mechanical shaker (250 RPM) for 2 h at ambient temperature ([…]). After 2 h, the homogenate was collected by vacuum filtration using a Unifilter-96 Cell Harvester (Perkin Elmer) over presoaked UniFilter-96 GF/C P Microplates (Perkin Elmer) and filters were washed with room temperature 10 mM HEPES buffer (pH 7.4) (3×1 mL). The filter plates were dried overnight in a fume hood. The next day, the bound tritium was measured via liquid scintillation counting with […] MicroScint-O (Perkin Elmer) added per well, using a MicroBeta2 Plate Reader with 6-detectors scintillation counter (Perkin Elmer) at 55% efficiency. IC50 value estimates were determined in GraphPad Prism 9.3.1 using non-linear regression (single site fit) with log-concentration plotted against percent specific binding. Ki values were calculated using the equation of Cheng and Prusoff. […] Experiments were performed in duplicate. N=1-4 per compound.

Experiment [2] concerns the target T1, human Dopamine Transporter (Homo sapiens, UniProt Q01959).
T1 construct: host or cells: CHO
Nature of the experiment: Human dopamine reuptake transporter (DAT) inhibition functional study, ASP+ uptake in CHO cells. In kind it is cell-based. Conditions: at 10,000 nM, 10 μM ASP+, 1 h, CHO cells stably expressing human DAT. Here is the method:
CHO cells stably expressing human Dopamine Transporter Protein (Valiscreen® Perkin Elmer RBHDATM-K) were cultured in 150 mm Tissue Culture dishes (Cell Treat 229651) at 37 ° C and 5% CO2. Ham's F-12 Nutrient Mix (Gibco, USA) was supplemented with 10% dialyzed FBS (Gibco, USA), 100 µg/ml Geneticin (Gibco, USA), and 100 units/ml Penicillin and Streptomycin (Gibco, USA) as the culture media. Cells were maintained on a consistent splitting and assay schedule and utilized until passage 30 (no change in control experiments were observed up to this point).
Cells were detached from their growth dishes using Trypsin-EDTA (0.25%) (Gibco, USA) at 70-80% confluency. The cells were counted and diluted in culture media to a density of 300,000 cells/mL. 200 µl of this mixture was added to each well of a clear bottom, black-walled 96 well plate (Coming 3603, USA). Plates were incubated in the laminar flow hood for one hour prior to being placed in the cell culture incubator in order to encourage even cell distribution across the entire well surface.
The next day, Krebs-Ringer HEPES (KRH) Buffer pH 7.4 was prepared (10 mM HEPES, 130 mM NaCl, 1.3 mM KCl, 2.2 mM CaCl2, 1.2 mM MgSO4, 1.2 mM KH2PO4) and titrated with 6N NaOH. This buffer was stored in a 4 ° C refrigerator for up to 4 days (after which it was discarded). Additionally, a solution containing KRH buffer and 330 µM Trypan Blue (Sigma T6146-25G), a solution of 20 mM ASP+(MedChem Express, NJ, USA) dissolved in DMSO, were both prepared. The 20 mM DMSO stock of ASP+ was diluted to a working concentration of 40 µM in KRH buffer. DMSO solutions of 40 mM GBR-12935 dihydrochloride (MedChem Express, NJ, USA) and 40 mM test compounds were also prepared. DMSO solutions of test compounds were then diluted to a range of […]-40 μM in KRH Buffer with 1% additional DMSO added to provide consistent DMSO concentration in all samples. […] The final DMSO concentration in each well was 0.3%. […] KRH buffer with DMSO “vehicle control” served as the total fluorescence control to represent the maximum amount of substrate uptake without DAT transporter inhibition.
At the time of assay, cell media was carefully removed from the wells via pipette aspiration. 100 μL of KRH buffer was then added to all wells. Both controls, non-specific and total fluorescence stock solutions were then added to the plate (50 µL of either 400 µM GBR-12935 or KRH DMSO buffer respectively). Additionally, GBR-12935 and test compounds were added to the plate ([…] for each sample). The 10,000 nM concentration of test compound was run in triplicate wells. Next, […] ASP+(final concentration of 10 μM) was added to each well initiating the experiment. Cells were placed in the cell culture incubator for one hour, at which point 20 µL of 330 µM Trypan Blue was added to each well to quench extracellular fluorescence. The cells were then placed in the microplate reader (BioTek Synergy Neo 2), using Gen5 Ver 3.11 software. The reader was preheated to 37 ° C and following a brief orbital shake, intracellular fluorescence was measured using a fluorescence intensity reading. Intracellular ASP+ was excited at 430 nm and emission read at 510 nm via a bottom read using the extended gain settings and high lamp energy setting.

For experiment [3], the target named is T2, hSERT (Homo sapiens, UniProt P31645).
T2 construct: no vendor name is printed for this cell line) RBHSTM-K; host or cells: HEK293
T2 sequence (P31645 whole entry): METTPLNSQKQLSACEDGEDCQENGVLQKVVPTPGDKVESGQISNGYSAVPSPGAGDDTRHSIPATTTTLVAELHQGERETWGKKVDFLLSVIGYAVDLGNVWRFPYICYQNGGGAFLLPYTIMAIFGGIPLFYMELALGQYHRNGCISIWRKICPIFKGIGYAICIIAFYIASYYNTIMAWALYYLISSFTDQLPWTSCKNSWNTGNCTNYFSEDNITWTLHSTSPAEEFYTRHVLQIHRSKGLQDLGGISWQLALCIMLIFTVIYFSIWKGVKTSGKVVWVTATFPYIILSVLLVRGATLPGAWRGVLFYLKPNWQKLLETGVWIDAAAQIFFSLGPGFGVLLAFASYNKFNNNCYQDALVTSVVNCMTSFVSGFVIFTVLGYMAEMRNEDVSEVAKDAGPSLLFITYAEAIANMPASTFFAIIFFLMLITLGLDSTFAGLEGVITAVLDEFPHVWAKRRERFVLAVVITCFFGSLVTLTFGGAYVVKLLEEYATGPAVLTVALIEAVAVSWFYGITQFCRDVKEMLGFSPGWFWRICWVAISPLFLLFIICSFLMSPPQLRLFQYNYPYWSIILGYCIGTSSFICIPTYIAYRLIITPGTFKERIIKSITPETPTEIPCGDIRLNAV
Kind of experiment: SERT [3H]-citalopram competition radioligand binding, hSERT expressing HEK293 cell membranes. As to the method:
Valiscreen Serotonin Transporter (SERT) (Human) Cell Line (HEK293 host cells, Product No: RBHSTM-K) grown in DMEM/F12 media with 10% FBS, 0.1 mg/ml Geneticin, 1% GlutaMAX, and 1% Penicillin-Streptomycin added were used to prepare SERT membrane fractions. Cells were grown in 150 mm dishes and harvested between 70-90% confluency, passages 5-20. Cells were detached using a buffer containing 1 mM HEPES and 2 mM EDTA (pH 7.4). After detachment, the cells were homogenized using a handheld homogenizer, and the lysate was centrifuged (30 minutes at 30,000×G) at 4 ° C The resulting pellet was resuspended in storage buffer containing 20 mM HEPES, 10 mM MgCl2, 0.1 mM EDTA, and 10% sucrose at pH 7.4. Protein concentration was determined via the Bradford method using Coomassie protein assay reagent (Sigma, USA) with Bovine Serum albumin (Sigma, USA) as standard.
Buffer containing 10 mM HEPES, 120 mM NaCl, and 5 mM KCl (pH 7.4) was added to SERT membranes to dilute to a final protein concentration of 5 µg/mL per well. Additionally, 0.5 nM [3H]-Citalopram (Perkin Elmer NET1039250UC) was added, along with unlabeled competitors at various concentrations or […] citalopram for nonspecific binding controls, bringing the total volume to 1 ml in a 96 well plate. SERT membranes were always added last to each well. The plates were covered from light with aluminum foil and incubated at ambient temperature ([…]) and placed on a mechanical shaker (250RPM) for 2 h. After 2 h, SERT protein was captured via vacuum filtration using a Unifilter-96 Cell Harvester (Perkin Elmer) over presoaked UniFilter-96 GF/C P Microplates (Perkin Elmer) and filters were washed with room temperature 10 mM HEPES, 120 mM NaCl, and 5 mM KCl buffer (pH 7.4) (3×1 mL). The filter plates were dried overnight in a fume hood. The next day, the SERT bound tritium was measured via liquid scintillation counting with MicroScint-O (Perkin Elmer), using a MicroBeta2 Plate Reader with 6-detectors scintillation counter (Perkin Elmer) at 55% efficiency. IC50 value estimates were determined in GraphPad Prism 9.3.1 using non-linear regression (single site fit) with log-concentration plotted against percent specific binding. […] For each experiments compounds were run in duplicate. N=1-3 repeats per compound.

T1 sequence (Q01959 whole entry): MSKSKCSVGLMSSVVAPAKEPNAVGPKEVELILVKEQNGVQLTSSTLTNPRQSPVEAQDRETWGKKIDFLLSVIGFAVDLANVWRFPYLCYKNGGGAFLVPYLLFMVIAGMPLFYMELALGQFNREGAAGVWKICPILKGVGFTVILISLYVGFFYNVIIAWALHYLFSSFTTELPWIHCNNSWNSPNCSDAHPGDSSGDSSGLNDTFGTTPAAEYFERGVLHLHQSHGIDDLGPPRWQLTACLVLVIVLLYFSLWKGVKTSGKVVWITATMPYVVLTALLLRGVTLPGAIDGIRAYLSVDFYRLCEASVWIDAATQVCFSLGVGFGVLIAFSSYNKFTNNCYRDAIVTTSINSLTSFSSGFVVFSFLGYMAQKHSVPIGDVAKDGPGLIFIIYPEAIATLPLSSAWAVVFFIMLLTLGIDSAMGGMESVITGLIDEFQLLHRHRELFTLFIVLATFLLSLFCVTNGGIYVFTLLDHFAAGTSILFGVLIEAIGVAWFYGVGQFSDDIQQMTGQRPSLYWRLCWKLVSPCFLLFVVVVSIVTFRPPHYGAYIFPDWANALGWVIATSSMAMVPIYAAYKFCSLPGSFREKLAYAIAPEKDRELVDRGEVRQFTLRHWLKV

With `CCCC(N)(c1ccccc1)C1CCCC1` (stereo not shown) [Compound 14, 1-cyclopentyl-1-phenylbutan-1-amine], in experiment [1], the “NMDAR binding affinity pKi (mean ± SEM)” value was found to be 5.94 ± 0.166.
Take `C=CCC(N)c1ccccc1` (stereo not shown) [Compound 30, 1-phenylbut-3-en-1-amine]: in experiment [1], the “NMDAR binding affinity pKi (mean ± SEM)” value is reported as less than 5.00 and the “% inhibition of specific [3H]-MK-801 binding” value (“% inhibition of specific” below) is given as 43.9%.
A word on the inhibition: it is the share of the control response that was lost under treatment. With `NC(c1ccccc1)(C1CCCC1)C1CCC1` (stereo not shown) [Compound 7, Cyclobutyl(cyclopentyl)(phenyl)methanamine], the “NMDAR binding affinity pKi (mean ± SEM)” value in experiment [1] turned out to be 5.63 ± 0.029. Moreover, the inhibition at 10 µM in experiment [2] was determined as 24.1%.
`CC(N)(c1cccc(C(F)(F)F)c1)C1CCCC1` (stereo not shown) [Compound 50, 1-cyclopentyl-1-(3-(trifluoromethyl)phenyl)ethan-1-amine]: the “NMDAR binding affinity pKi (mean ± SEM)” value in experiment [1] was 5.86 ± 0.11.
Consider `CC(C)C(C)(N)c1ccccc1` (stereo not shown) [Compound 25, 3-methyl-2-phenylbutan-2-amine], for which, in experiment [1], the “NMDAR binding affinity pKi (mean ± SEM)” value is given as 5.86 ± 0.044. Further, the inhibition at 10 µM in experiment [2] was 37.6%.
As to `C=CCCC(N)(c1ccccc1)C1CCCC1` (stereo not shown) [Compound 8, 1-cyclopentyl-1-phenylpent-4-en-1-amine], the “NMDAR binding affinity pKi (mean ± SEM)” value in experiment [1] was found to be 6.24 ± 0.444. For the same compound, the inhibition at 10 µM in experiment [2] came to 3.1%.
For the compound `COc1ccc(C(C)(N)C2CCCC2)cc1` (stereo not shown) [Compound 49, 1-cyclopentyl-1-(4-methoxyphenyl)ethan-1-amine], the “NMDAR binding affinity pKi (mean ± SEM)” value in experiment [1] is 6.49 ± 0.0039.
Regarding `NC(c1ccccc1)C1CCCC1` (stereo not shown) [Compound 27, Cyclopentyl(phenyl)methanamine], in experiment [1], the “NMDAR binding affinity pKi (mean ± SEM)” value was less than 5.00 and the “% inhibition of specific” value was 32.4%.
`CC(N)(c1ccc(F)cc1)C1CCCC1` (stereo not shown) [Compound 48, 1-cyclopentyl-1-(4-fluorophenyl)ethan-1-amine]: in experiment [1], the “NMDAR binding affinity pKi (mean ± SEM)” value was 6.96 ± 0.019.
As for `NC(c1ccccc1)C1CCCCC1` (stereo not shown) [Compound 28, Cyclohexyl(phenyl)methanamine], the “NMDAR binding affinity pKi (mean ± SEM)” value in experiment [1] amounted to 4.97 ± 0.054. For the same compound, in experiment [2], the inhibition at 10 µM turned out to be 17.9%.
Regarding `C#CC(N)(c1ccccc1)C1CCCC1` (stereo not shown) [Compound 53, 1-cyclopentyl-1-phenylprop-2-yn-1-amine], in experiment [1], the “NMDAR binding affinity pKi (mean ± SEM)” value is less than 5.00 and the “% inhibition of specific” value is reported as 45.0%.
Turning to `C=CC(N)(c1ccccc1)C1CCCC1` (stereo not shown) [Compound 10, 1-cyclopentyl-1-phenylprop-2-en-1-amine], the “NMDAR binding affinity pKi (mean ± SEM)” value in experiment [1] came out at 6.05.
Turning to `CCNC(c1ccccc1)C1CCCC1` (stereo not shown) [Compound 32, N-(cyclopentyl(phenyl)methyl)ethanamine], the “NMDAR binding affinity pKi (mean ± SEM)” value in experiment [1] is given as 5.85.
On to `CCCNC(c1ccccc1)C1CCCCC1` (stereo not shown) [Compound 31, N-(cyclohexyl(phenyl)methyl)propan-1-amine], for which the “NMDAR binding affinity pKi (mean ± SEM)” value in experiment [1] stood at 5.76.
Turning to `CC(NC1CCC1)(c1ccccc1)C1CCCC1` (stereo not shown) [Compound 21, N-(1-cyclopentyl-1-phenylethyl)cyclobutanamine], the “NMDAR binding affinity pKi (mean ± SEM)” value in experiment [1] turned out to be 8.06 ± 0.021. Also, the inhibition at 10 µM in experiment [2] came to 87.3%.
`CC(N)(c1cc2ccccc2s1)C1CCCC1` (stereo not shown) [Compound 51, 1-(benzo[b]thiophen-2-yl)-1-cyclopentylethan-1-amine]: in experiment [1], the “NMDAR binding affinity pKi (mean ± SEM)” value was less than 5.00 and the “% inhibition of specific” value is listed as 34.6%.
Turning to `CC(c1ccccc1)(C1CCCC1)N1CCCCC1` (stereo not shown) [Compound 22, 1-(1-cyclopentyl-1-phenylethyl)piperidine], the “NMDAR binding affinity pKi (mean ± SEM)” value in experiment [1] is 6.08 ± .0633. Besides, the Ki in experiment [3] (0.5 nM [3H]-citalopram competition, hSERT HEK293 membranes, pH 7.4, 2 h ambient, N = 1, read-out: SERT pKi (converted)) was 479 nM.
In general, IC50 refers to the concentration that gives 50% inhibition. The low end stands for inhibition by little substance, the high end for a need for much substance. `CC(N)(c1ccccc1)C1CC1` (stereo not shown) [Compound 2, 1-cyclopropyl-1-phenylethan-1-amine]: the “NMDAR binding affinity pKi (mean ± SEM)” value in experiment [1] is listed as 6.19 ± 0.162. This compound came in with an IC50 in experiment [3] of more than 10000 nM.
With `COc1cccc(C(C)(N)C2CCCC2)c1` (stereo not shown) [Compound 13, 1-cyclopentyl-1-(3-methoxyphenyl)ethan-1-amine], the “NMDAR binding affinity pKi (mean ± SEM)” value in experiment [1] was determined as 6.82 ± 0.039.
In the case of `CC(N)(c1ccccc1)C1CCC1` (stereo not shown) [Compound 47, 1-cyclobutyl-1-phenylethan-1-amine], in experiment [1], the “NMDAR binding affinity pKi (mean ± SEM)” value amounted to 6.75 ± 0.016.

The values above are taken from patent US20260347330A1, “N-METHYL-D-ASPARTATE RECEPTOR (NMDAR) ANTAGONISTS AND USES THEREOF” (Bexson Biomedical, Inc., priority 2022, published 2026).
